Calls of active or inactive are those of the source.
Experiments:
[1] = target: Peroxisome proliferator-activated receptor gamma/Nuclear receptor coactivator 2 (Homo sapiens, UniProt P37231); test: (§1) TR-FRET dose response biochemical High Throughput Screening assay for agonists of the steroid receptor coactivator 2 (SRC-2) recruitment by the peroxisome proliferator-activated receptor gamma (PPAR gamma): non-selective agonists. [Related pubchem assays: 1297, 1032 ]; type: functional
[2] = target: Peroxisome proliferator-activated receptor gamma/Nuclear receptor coactivator 3 (Homo sapiens, UniProt P37231); test: as §1, with “3 (SRC-3)” for “2 (SRC-2)”, “1301 (Confirmation screen.), 1048 (Primary screen.)]” for “1297, 1032 ]”; type: functional
[3] = target: Peroxisome proliferator-activated receptor gamma/Nuclear receptor coactivator 1 (Homo sapiens, UniProt P37231); test: as §1, with “1 (SRC-1)” for “2 (SRC-2)”, “assays (depositor defined):AID1300, AID1808, AID504735, AID631]” for “assays: 1297, 1032 ]”; type: protein assay
Sequence of Peroxisome proliferator-activated receptor gamma/Nuclear receptor coactivator 1 (P37231 whole entry): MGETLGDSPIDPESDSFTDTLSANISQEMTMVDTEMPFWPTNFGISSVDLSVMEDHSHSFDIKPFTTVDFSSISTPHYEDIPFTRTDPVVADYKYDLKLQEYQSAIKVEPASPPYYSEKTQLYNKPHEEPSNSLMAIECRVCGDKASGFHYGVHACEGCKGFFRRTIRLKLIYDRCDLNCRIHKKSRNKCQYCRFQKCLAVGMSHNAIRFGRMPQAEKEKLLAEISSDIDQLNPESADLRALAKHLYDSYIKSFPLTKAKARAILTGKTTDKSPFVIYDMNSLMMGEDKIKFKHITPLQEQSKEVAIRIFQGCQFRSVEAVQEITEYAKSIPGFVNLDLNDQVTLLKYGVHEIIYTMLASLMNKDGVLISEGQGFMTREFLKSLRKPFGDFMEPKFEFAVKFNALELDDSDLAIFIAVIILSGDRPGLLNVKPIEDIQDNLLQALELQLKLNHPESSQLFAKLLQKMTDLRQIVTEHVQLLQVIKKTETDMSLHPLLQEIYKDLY
Sequence of Peroxisome proliferator-activated receptor gamma/Nuclear receptor coactivator 1 (Q15788 whole entry, further chain): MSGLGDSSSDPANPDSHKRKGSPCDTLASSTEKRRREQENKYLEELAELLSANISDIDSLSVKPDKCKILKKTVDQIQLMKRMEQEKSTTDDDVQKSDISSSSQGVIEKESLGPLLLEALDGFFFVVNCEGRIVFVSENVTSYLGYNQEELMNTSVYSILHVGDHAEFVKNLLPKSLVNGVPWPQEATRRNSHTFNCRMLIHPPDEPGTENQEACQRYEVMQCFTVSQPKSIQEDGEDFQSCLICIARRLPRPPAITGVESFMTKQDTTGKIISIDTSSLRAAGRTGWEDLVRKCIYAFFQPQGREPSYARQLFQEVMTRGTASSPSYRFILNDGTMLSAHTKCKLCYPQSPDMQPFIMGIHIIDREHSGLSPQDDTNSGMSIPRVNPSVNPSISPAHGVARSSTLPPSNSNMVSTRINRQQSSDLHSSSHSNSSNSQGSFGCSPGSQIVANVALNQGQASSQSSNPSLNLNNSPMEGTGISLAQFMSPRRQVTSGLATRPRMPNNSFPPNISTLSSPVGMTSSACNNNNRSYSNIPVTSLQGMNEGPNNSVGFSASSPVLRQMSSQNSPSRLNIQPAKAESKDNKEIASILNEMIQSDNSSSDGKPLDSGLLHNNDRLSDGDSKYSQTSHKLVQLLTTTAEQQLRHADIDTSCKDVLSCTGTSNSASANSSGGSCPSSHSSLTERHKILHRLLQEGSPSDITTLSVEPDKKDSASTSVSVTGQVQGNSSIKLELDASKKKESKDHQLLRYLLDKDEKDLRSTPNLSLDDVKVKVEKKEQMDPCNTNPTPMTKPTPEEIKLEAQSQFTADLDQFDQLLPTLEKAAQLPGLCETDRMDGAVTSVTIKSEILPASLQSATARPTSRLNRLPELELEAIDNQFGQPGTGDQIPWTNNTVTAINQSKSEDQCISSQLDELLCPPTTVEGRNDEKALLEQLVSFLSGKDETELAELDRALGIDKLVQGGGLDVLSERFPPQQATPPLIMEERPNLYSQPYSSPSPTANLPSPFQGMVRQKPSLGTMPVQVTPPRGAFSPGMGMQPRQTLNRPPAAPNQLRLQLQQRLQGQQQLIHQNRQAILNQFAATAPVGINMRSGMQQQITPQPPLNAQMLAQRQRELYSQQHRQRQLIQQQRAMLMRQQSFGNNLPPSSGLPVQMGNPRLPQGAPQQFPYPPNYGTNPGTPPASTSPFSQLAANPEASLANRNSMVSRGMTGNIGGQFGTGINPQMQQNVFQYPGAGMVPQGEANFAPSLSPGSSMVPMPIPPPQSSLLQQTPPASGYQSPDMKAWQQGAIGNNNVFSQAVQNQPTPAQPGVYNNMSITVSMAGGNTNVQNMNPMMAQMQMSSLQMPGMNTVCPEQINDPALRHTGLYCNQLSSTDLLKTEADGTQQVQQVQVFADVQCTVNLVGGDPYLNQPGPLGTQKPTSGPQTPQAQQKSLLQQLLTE

[4] = target: T1, Sentrin-specific protease 8 (Homo sapiens, UniProt Q96LD8); type: functional;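 further: luminescence read-out of SENP8 inhibition, dose-response confirmation following an ultra-high-throughput screen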
T1 sequence (Q96LD8 whole entry): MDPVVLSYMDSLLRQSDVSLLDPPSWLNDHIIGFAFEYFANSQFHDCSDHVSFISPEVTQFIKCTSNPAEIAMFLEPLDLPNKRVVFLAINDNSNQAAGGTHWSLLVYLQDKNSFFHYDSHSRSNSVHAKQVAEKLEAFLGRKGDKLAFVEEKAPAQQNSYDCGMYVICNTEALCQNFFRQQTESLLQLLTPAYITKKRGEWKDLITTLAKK

[5] = target: T2, Caspase-3 (Homo sapiens, UniProt P42574); type: functional;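 further: Dose-response selectivity test against caspase-3 for candidate inhibitors of sentrin-specific proteases (SENPs)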
T2 sequence (P42574 whole entry): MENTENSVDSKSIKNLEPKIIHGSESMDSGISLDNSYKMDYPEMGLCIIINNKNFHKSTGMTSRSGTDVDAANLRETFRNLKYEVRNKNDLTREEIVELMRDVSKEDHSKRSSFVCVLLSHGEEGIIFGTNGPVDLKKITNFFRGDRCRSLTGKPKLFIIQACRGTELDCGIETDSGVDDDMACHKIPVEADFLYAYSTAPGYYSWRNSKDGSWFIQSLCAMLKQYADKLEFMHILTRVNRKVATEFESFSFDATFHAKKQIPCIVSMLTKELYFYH

[6] = target: T3, Sentrin-specific protease 6 (Homo sapiens, UniProt Q9GZR1); type: functional;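 further: Luminescence-based dose-response confirmatory assay of SENP6 inhibition, following up an ultra-high-throughput screen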
T3 sequence (Q9GZR1 whole entry): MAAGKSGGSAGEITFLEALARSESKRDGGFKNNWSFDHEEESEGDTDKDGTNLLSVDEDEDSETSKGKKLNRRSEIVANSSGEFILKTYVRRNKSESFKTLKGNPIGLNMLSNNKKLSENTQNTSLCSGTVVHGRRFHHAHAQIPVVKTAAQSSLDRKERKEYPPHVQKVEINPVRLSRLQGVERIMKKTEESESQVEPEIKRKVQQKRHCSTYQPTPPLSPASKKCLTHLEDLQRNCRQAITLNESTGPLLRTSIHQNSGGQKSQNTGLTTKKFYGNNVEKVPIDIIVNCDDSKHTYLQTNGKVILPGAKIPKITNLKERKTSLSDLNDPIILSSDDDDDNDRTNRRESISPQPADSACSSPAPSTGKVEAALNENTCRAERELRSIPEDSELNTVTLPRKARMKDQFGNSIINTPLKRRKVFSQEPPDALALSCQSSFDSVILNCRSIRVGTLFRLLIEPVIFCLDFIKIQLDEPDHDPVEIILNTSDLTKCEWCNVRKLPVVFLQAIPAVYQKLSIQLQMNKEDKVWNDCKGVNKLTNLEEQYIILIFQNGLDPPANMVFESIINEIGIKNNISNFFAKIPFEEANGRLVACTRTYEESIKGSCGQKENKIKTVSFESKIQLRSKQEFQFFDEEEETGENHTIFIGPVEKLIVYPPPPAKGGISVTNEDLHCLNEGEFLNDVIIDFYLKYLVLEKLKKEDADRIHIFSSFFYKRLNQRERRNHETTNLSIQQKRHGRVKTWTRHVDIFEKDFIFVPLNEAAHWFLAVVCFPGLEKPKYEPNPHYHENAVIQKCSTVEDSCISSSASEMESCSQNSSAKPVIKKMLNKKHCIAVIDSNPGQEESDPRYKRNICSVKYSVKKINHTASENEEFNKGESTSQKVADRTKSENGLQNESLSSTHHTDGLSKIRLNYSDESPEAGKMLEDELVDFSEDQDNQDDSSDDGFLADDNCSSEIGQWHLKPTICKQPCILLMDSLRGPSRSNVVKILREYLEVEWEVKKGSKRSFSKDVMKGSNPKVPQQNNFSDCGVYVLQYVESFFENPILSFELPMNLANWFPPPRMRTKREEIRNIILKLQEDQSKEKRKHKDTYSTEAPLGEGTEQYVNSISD

[7] = target: T4, Sentrin-specific protease 7 (Homo sapiens, UniProt Q9BQF6); type: functional;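 further: Luminescence-based dose-response confirmation of ultra-high-throughput screening hits, measuring inhibition of SENP7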
T4 sequence (Q9BQF6 whole entry): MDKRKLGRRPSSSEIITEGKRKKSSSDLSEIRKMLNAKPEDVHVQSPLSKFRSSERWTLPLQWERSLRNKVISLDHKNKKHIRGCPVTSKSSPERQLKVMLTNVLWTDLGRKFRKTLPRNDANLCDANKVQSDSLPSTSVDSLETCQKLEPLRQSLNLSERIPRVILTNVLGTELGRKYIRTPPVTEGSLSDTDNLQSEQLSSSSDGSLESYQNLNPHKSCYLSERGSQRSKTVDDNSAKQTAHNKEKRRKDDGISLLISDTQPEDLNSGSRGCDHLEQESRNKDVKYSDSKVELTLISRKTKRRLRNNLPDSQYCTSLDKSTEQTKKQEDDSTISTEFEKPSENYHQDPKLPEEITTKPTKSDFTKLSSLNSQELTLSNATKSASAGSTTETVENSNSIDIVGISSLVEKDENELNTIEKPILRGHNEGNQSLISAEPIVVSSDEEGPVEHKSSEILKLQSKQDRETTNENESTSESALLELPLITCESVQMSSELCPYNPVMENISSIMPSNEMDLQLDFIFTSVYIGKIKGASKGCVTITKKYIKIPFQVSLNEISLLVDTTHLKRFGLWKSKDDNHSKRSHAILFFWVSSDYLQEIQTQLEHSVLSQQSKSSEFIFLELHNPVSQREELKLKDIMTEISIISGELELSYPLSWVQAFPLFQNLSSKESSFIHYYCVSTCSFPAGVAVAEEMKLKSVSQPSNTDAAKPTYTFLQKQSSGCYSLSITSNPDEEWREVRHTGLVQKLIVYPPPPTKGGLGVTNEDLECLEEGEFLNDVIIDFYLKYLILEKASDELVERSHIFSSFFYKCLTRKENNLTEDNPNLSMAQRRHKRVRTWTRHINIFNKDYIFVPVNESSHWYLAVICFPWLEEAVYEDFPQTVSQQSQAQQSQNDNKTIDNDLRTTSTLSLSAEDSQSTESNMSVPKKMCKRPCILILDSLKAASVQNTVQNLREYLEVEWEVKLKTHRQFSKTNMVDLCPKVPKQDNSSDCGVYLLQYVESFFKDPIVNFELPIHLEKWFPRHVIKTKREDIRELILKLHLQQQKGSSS

[8] = target: Cytochrome P450 2C19 (Homo sapiens, UniProt P33261); test: Cytochrome panel assay with activity outcomes. Panel member name: p450-cyp2c19 Compounds with AC50 equal or less than 10 uM are considered active; type: functional
Sequence of Cytochrome P450 2C19 (P33261 whole entry): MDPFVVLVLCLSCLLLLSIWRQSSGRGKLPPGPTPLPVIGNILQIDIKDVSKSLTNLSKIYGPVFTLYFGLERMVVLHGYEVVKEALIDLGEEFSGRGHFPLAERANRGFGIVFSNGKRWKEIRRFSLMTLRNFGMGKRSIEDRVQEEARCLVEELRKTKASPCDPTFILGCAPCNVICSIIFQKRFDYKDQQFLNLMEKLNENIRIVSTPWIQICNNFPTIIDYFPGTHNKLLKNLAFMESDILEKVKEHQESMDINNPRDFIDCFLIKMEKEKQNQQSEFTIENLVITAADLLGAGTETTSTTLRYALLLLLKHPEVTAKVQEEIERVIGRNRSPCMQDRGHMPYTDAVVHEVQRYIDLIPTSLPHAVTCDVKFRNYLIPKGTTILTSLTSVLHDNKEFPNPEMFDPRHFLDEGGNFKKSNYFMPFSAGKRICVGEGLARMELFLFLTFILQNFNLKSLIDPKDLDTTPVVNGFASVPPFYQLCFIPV

[9] = target: Cytochrome P450 3A4 (Homo sapiens, UniProt P08684);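 further: CYP3A4 tested as one member of a cytochrome P450 panel screen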
Sequence of Cytochrome P450 3A4 (P08684 whole entry): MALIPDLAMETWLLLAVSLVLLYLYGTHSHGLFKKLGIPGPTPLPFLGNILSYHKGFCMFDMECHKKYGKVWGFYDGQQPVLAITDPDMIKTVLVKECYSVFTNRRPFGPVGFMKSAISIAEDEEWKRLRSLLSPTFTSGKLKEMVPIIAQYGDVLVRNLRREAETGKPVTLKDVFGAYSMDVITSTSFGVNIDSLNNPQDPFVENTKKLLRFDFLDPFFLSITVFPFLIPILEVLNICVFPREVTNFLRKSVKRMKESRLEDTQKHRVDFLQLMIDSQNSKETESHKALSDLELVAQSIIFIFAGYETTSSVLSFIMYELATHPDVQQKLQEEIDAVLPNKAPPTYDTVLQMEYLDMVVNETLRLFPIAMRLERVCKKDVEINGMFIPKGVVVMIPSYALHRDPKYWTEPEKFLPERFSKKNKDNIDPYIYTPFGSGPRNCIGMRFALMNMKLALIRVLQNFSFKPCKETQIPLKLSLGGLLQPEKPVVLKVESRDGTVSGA

[10] = target: T5, COUP transcription factor 2 (Homo sapiens, UniProt P24468); test: Luminescence-based cell-based high throughput dose response assay to identify inhibitors of COUP-TFII (NR2F2).; type: functional;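 further: HEK293 cells transiently cotransfected with COUP-TFII expression vector and reporter; luciferase reporter luminescence driven by COUP-TFII from the pX2-168 reporter plasmid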
T5 sequence (P24468 whole entry): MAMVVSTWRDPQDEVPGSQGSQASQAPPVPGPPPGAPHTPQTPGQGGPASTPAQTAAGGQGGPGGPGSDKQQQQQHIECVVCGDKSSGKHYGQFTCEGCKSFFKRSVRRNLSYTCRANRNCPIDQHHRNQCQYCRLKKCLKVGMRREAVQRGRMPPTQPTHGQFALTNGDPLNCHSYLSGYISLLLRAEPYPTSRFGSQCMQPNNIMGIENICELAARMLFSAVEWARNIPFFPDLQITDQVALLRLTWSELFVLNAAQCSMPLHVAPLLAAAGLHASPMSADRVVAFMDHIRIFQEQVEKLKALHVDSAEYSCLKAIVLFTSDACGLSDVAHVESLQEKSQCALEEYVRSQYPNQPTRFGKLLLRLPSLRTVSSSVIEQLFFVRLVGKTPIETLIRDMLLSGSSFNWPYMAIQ

[11] = viability of PTEN-deleted HCT116 cells – cell-based, HCT116 PTEN knockout, dose response (AID 1047); type: functional;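 further: HCT116 colon tumor cells with PTEN knocked out; cells exposed to compound for 60 hours before readout; potency for loss of cell viability measured by luminescence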
[12] = HEK-293T viability loss after treatment – luminescence, T-cell screen hits, cytotoxicity control for TCR NF-kB inhibitor project, dose response (AID 489026); type: functional, cell-based;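 further: cells exposed to compound about 14 hours before the viability readout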
[13] = viability of HCT116 lacking mutant beta-catenin – cell-based, human colon tumor, dose response (AID 1045); type: functional;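 further: HCT116 colon tumor cells with beta catenin knocked out; cells exposed to compound for 60 hours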
[14] = Trypanosoma cruzi growth suppression in host cells – NIH3T3 host cells, beta-gal luminescence, confirmation (AID 2044); type: functional, cell-based;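 further: intracellular parasites grown in NIH/3T3 mouse fibroblasts as host cells; luminescent beta-galactosidase reporter signal from transgenic T. cruzi replicating inside host cells; inhibitors lower the luminescence signal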
[15] = NIH3T3 cell viability loss – ATP luminescence, mouse fibroblasts, counter-screen, dose response (AID 2010); type: functional, cell-based;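 further: cells exposed to compound for about 90 hours before reading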
[16] = target: Ras and Rab interactor 1/Tyrosine-protein kinase ABL1 (Homo sapiens, UniProt P00519+Q13671); type: functional;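 further: biochemical TR-FRET dose-response test measuring inhibition of binding between Rin1 and Abl proteins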
[17] = system: P388; test: cells; type: functional; settings: Mus musculus;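 further: compound exposure lasted 48 hours before growth was measured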
[18] = system: SN12K1; test: cells; type: functional; settings: Homo sapiens
[19] = non-specific 3'UTR reporter inhibition in Clone20-Shn3RL – cell-based, Renilla luciferase, cherry-picked, counter-screen for Shn3 inhibitor project, dose response (AID 624133); type: functional
[20] = system: HEK293; test: cells; type: functional, cell-based; settings: Homo sapiens
[21] = loss of viability in HepG2 cells – cell-based, CellTiter-Glo, cherry-picked, cytotoxicity control for Shn3 inhibitor project, dose response (AID 624134); type: functional
[22] = reduction of Shn3 3'UTR-driven luciferase in osteoblasts – cell-based, Clone20 osteoblasts, firefly luciferase, cherry-picked, dose response (AID 624132); type: functional;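 further: firefly luciferase luminescence from reporter carrying the Shn3 3'UTR in osteoblasts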
[23] = system: HEK293; test: cells; type: functional, cell-based; settings: Homo sapiens; remark: listed apart in the source
[24] = system: HEK293; test: NOD2 signaling inhibitors in MDP-stimulated cells, cell-based, uHTS, luminescence (AID 2001); type: functional; settings: Homo sapiens
[25] = system: HEK293; test: inhibition of NOD1-driven NF-kB reporter – cell-based, luminescence, uHTS, primary screen (AID 1578); type: functional; settings: Homo sapiens
[26] = target: Cytochrome P450 2D6 (Homo sapiens, UniProt P10635);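 further: CYP2D6 member of a cytochrome P450 panel assay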
[27] = target: Cytochrome P450 2C9 (Homo sapiens, UniProt P11712)

Sequence of Peroxisome proliferator-activated receptor gamma/Nuclear receptor coactivator 2 (P37231 whole entry): as the sequence (P37231 whole entry) above
Sequence of Peroxisome proliferator-activated receptor gamma/Nuclear receptor coactivator 2 (Q15596 whole entry, further chain): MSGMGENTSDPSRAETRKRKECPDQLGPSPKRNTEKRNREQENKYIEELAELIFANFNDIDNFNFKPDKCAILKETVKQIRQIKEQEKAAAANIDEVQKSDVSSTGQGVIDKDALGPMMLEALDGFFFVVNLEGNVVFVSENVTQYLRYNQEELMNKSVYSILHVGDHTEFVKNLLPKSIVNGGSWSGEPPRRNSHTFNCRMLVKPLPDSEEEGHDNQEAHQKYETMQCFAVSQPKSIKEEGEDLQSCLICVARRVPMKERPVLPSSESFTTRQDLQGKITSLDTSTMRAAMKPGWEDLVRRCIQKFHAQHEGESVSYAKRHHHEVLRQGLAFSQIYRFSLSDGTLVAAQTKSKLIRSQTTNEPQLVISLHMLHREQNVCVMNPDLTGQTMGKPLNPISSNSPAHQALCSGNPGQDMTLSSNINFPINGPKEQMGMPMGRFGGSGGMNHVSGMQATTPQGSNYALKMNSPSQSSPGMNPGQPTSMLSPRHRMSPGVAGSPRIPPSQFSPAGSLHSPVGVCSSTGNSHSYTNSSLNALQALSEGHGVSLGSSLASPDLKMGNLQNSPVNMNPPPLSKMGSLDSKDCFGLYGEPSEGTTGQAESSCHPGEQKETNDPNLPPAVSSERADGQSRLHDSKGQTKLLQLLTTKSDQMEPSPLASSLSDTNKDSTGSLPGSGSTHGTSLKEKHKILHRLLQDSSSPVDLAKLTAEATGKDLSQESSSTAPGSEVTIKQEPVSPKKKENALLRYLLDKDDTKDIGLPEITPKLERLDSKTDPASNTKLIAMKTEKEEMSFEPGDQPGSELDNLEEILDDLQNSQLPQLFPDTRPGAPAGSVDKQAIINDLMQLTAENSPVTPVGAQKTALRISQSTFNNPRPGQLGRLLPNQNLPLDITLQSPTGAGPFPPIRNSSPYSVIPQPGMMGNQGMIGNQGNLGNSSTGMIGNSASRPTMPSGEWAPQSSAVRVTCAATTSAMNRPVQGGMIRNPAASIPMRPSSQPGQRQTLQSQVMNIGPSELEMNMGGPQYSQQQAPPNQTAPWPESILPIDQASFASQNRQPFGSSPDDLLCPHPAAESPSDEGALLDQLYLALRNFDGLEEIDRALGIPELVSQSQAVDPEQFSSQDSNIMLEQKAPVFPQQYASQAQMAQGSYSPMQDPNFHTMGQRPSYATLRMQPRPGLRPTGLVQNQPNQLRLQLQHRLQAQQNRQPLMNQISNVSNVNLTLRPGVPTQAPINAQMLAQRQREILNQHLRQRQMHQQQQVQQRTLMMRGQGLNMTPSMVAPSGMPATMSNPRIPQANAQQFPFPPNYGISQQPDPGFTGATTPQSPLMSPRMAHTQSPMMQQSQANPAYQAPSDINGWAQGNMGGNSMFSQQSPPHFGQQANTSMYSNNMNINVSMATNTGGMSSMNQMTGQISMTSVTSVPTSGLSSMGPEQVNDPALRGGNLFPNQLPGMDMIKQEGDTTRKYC

CCOC(=O)c1sc(NC(=O)c2ccco2)nc1-c1ccccc1
EC50 [1]: 14.2 µM (not active)
EC50 [2]: > 79.4 µM (not active)
EC50 [3]: 24.3 µM (inactive)

COc1cccc(-c2nc3ccc([N+](=O)[O-])cc3o2)c1
IC50 [4]: > 100 µM (inactive)
IC50 [5]: 2.52 µM (active)
IC50 [6]: > 100 µM (inactive)
IC50 [7]: < 1.55 µM (active)

CCc1nc2cc(CC(=O)O)ccc2o1
AC50 [8]: inconclusive
AC50 [9]: inconclusive

COC(=O)Cc1c(C)c2c(O)cc(C)cc2oc1=O
EC50 [1]: > 79.4 µM (not active)
EC50 [2]: > 79.4 µM (not active)
EC50 [3]: > 79.4 µM (inactive)

Cn1nc(CC(=O)Nc2ccc(N3CCN(C(=O)OC(C)(C)C)CC3)cc2)c2ccccc2c1=O
IC50 [10]: 4.32 µM (active)
EC50 [11]: 8.04 µM (active)
IC50 [12]: > 80 µM (inactive)
EC50 [13]: 5.89 µM (active)

COc1ccc(-c2csc(NC(=O)c3ccco3)n2)cc1
IC50 [4]: 41.3 µM (active)
IC50 [5]: 31.1 µM (active)
IC50 [6]: 28.5 µM (active)
IC50 [7]: 8.46 µM (active)

COc1ccc(C(=O)NC(=S)NCc2ccccc2)cc1
AC50 [9]: inconclusive

Cc1cc2cc(CNC(=O)c3cc4ccccc4o3)ccc2n1C
EC50 [14]: 0.547 µM (active)
EC50 [15]: > 60 µM (not active)
EC50 [1]: 11.1 µM (not active)
EC50 [2]: 19.2 µM (not active)
EC50 [3]: 10.6 µM (inactive)

C[N+](=N[N-]c1cccc([N+](=O)[O-])c1)c1ccccc1
IC50 [4]: 36 µM (active)
IC50 [5]: 29.7 µM (active)
IC50 [6]: 33.7 µM (active)
IC50 [7]: 6.72 µM (active)

Cn1c(=O)cc(SCC(=O)NCC2CCCO2)c2ccc(Cl)cc21 (configuration not stated)
EC50 [1]: > 26.5 µM (not active)
EC50 [2]: > 79.4 µM (not active)
EC50 [3]: > 79.4 µM (inactive)

O=C(Nc1ccc(Cl)cc1)C1=Cc2ccccc2OC1
IC50 [4]: 10.1 µM (active)
IC50 [5]: 26.5 µM (active)
IC50 [6]: 9.3 µM (active)
IC50 [7]: 5.5 µM (active)

CC[C@]12c3[nH]c4ccc(Cl)cc4c3CCN1C(=O)[C@@H](CC(=O)NCCCN(C)C)C[C@@H]2C(=O)N1CCN(C(=O)c2ccco2)CC1
IC50 [16]: 46.8 µM (inactive)

CSCCC(c1nnnn1C1CCCC1)N1CCC(n2c(O)nc3ccccc32)CC1 (configuration not stated)
IC50 [16]: 26.1 µM (inactive)

Nc1cc(S(=O)(=O)O)cc2cc(S(=O)(=O)O)c(/N=N/c3ccc(-c4ccc(/N=N/c5c(S(=O)(=O)O)cc6cc(S(=O)(=O)O)cc(N)c6c5O)cc4)cc3)c(O)c12
GI50 [17]: > 100 µM (inactive)
GI50 [18]: > 100 µM (inactive)

CCN(CC)C(=O)c1oc2ccc(S(=O)(=O)N3CC(C)CC(C)C3)cc2c1C (configuration not stated)
AC50 [19]: 6.58 µM (active)
IC50 [20]: > 20 µM (inactive)
AC50 [21]: 3.55 µM (active)
AC50 [22]: 1.02 µM (active)
IC50 [23]: 4.79 µM (active)
IC50 [10]: 8.24 µM (active)
IC50 [24]: 5.18 µM (active)
EC50 [25]: 2.78 µM (active)

Clc1cccc(-c2ccc(/C=N/c3ccc(N4CCOCC4)cc3)o2)c1
EC50 [1]: 28.6 µM (not active)
EC50 [2]: > 79.4 µM (not active)
EC50 [3]: > 79.4 µM (inactive)

CO/N=C(/CNC(=O)c1ccc(Cl)cc1Cl)c1ccc(Cl)cc1
AC50 [26]: 2 µM (inconclusive)
AC50 [9]: inconclusive

CCCN(CCC)CCc1cccc2c1CC(=O)N2 [ROPINIROLE]
AC50 [27]: inconclusive
AC50 [8]: inconclusive
AC50 [9]: inconclusive

— ChEMBL document CHEMBL1201862, “PubChem BioAssay data set” (2004)
